Test results reported in PubChem BioAssay (NCI).
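Cultured in 96-well plates, cells were exposed to test compound for 48 hours across five concentrations. At the TGI there is no net growth.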

Columns and labels:
Test in all cases: inhibition of tumour cell growth, NCI panel, 48 h
NCI-H460 lung = system: NCI-H460 lung
A549 NSCLC = system: A549 NSCLC
SF-295 CNS = system: SF-295 CNS
MCF7 breast = system: MCF7 breast
MOLT-4 leukemia = system: MOLT-4 leukemia
SNB-75 CNS = system: SNB-75 CNS
RXF 393 renal = system: RXF 393 renal
COLO 205 colon = system: COLO 205 colon
TK-10 renal = system: TK-10 renal
SR leukemia = system: SR leukemia
OVCAR-4 ovarian = system: OVCAR-4 ovarian
OVCAR-8 ovarian = system: OVCAR-8 ovarian
UACC-257 melanoma = system: UACC-257 melanoma
786-0 renal = system: 786-0 renal
K-562 leukemia = system: K-562 leukemia
U251 CNS = system: U251 CNS
DU-145 prostate = system: DU-145 prostate
NCI-H23 lung = system: NCI-H23 lung
MALME-3M melanoma = system: MALME-3M melanoma
BT-549 breast = system: BT-549 breast
A498 renal = system: A498 renal
NCI-H226 lung = system: NCI-H226 lung
HOP-62 NSCLC = system: HOP-62 NSCLC
SNB-19 CNS = system: SNB-19 CNS
OVCAR-5 ovarian = system: OVCAR-5 ovarian
HCT-15 colon = system: HCT-15 colon
EKVX NSCLC = system: EKVX NSCLC
HCC-2998 colon = system: HCC-2998 colon
HT29 colon = system: HT29 colon
UACC-62 melanoma = system: UACC-62 melanoma
MDA-N = system: MDA-N
OVCAR-3 ovarian = system: OVCAR-3 ovarian
SK-OV-3 ovarian = system: SK-OV-3 ovarian
HL-60(TB) leukemia = system: HL-60(TB) leukemia
SK-MEL-28 melanoma = system: SK-MEL-28 melanoma
MDA-MB-435 = system: MDA-MB-435
SW-620 colon = system: SW-620 colon
PC-3 prostate = system: PC-3 prostate
MDA-MB-231 breast = system: MDA-MB-231 breast
SK-MEL-5 melanoma = system: SK-MEL-5 melanoma
LOX IMVI melanoma = system: LOX IMVI melanoma
ACHN renal = system: ACHN renal
KM12 colon = system: KM12 colon
HS 578T breast = system: HS 578T breast
M14 melanoma = system: M14 melanoma
NCI/ADR-RES ovarian = system: NCI/ADR-RES ovarian
SF-268 CNS = system: SF-268 CNS
CCRF-CEM leukemia = system: CCRF-CEM leukemia
UO-31 renal = system: UO-31 renal
RPMI-8226 leukemia = system: RPMI-8226 leukemia
HOP-92 NSCLC = system: HOP-92 NSCLC
T-47D breast = system: T-47D breast
IGROV1 ovarian = system: IGROV1 ovarian
SN12C renal = system: SN12C renal
NCI-H522 lung = system: NCI-H522 lung
SF-539 CNS = system: SF-539 CNS
CAKI-1 renal = system: CAKI-1 renal
HCT-116 colon = system: HCT-116 colon
SK-MEL-2 melanoma = system: SK-MEL-2 melanoma
SNB-78 CNS = system: SNB-78 CNS
XF 498 CNS = system: XF 498 CNS
DMS 273 small cell lung = system: DMS 273 small cell lung
LXFL 529 NSCLC = system: LXFL 529 NSCLC
M19-MEL melanoma = system: M19-MEL melanoma
DLD-1 colon = system: DLD-1 colon
KM20L2 colon = system: KM20L2 colon
DMS 114 small cell lung = system: DMS 114 small cell lung

C=C1CCOC2(C(O)C(C)(O)CO)NC(=O)C1(O)NC2=O (centres undefined)
TGI (NCI-H460 lung): > 100 µM | TGI (A549 NSCLC): > 100 µM | TGI (SF-295 CNS): > 100 µM | TGI (MCF7 breast): > 100 µM | TGI (MOLT-4 leukemia): > 100 µM | TGI (SNB-75 CNS): > 100 µM | TGI (RXF 393 renal): > 100 µM | TGI (COLO 205 colon): > 100 µM | TGI (TK-10 renal): > 100 µM | TGI (SR leukemia): > 100 µM | TGI (OVCAR-4 ovarian): > 100 µM | TGI (OVCAR-8 ovarian): > 100 µM | TGI (UACC-257 melanoma): > 100 µM | TGI (786-0 renal): > 100 µM | TGI (K-562 leukemia): > 100 µM | TGI (U251 CNS): > 100 µM | TGI (DU-145 prostate): > 100 µM | TGI (NCI-H23 lung): > 100 µM | TGI (MALME-3M melanoma): > 100 µM | TGI (BT-549 breast): > 100 µM | TGI (A498 renal): > 100 µM | TGI (NCI-H226 lung): > 100 µM | TGI (HOP-62 NSCLC): > 100 µM | TGI (SNB-19 CNS): > 100 µM | TGI (OVCAR-5 ovarian): > 100 µM | TGI (HCT-15 colon): > 100 µM | TGI (EKVX NSCLC): > 100 µM | TGI (HCC-2998 colon): > 100 µM | TGI (HT29 colon): > 100 µM | TGI (UACC-62 melanoma): > 100 µM | TGI (MDA-N): > 100 µM | TGI (OVCAR-3 ovarian): > 100 µM | TGI (SK-OV-3 ovarian): > 100 µM | TGI (HL-60(TB) leukemia): > 100 µM | TGI (SK-MEL-28 melanoma): > 100 µM | TGI (MDA-MB-435): > 100 µM | TGI (SW-620 colon): > 100 µM | TGI (PC-3 prostate): > 100 µM | TGI (MDA-MB-231 breast): > 100 µM | TGI (SK-MEL-5 melanoma): > 100 µM | TGI (LOX IMVI melanoma): > 100 µM | TGI (ACHN renal): > 100 µM | TGI (KM12 colon): > 100 µM | TGI (HS 578T breast): > 100 µM | TGI (M14 melanoma): > 100 µM | TGI (NCI/ADR-RES ovarian): > 100 µM | TGI (SF-268 CNS): > 100 µM | TGI (CCRF-CEM leukemia): > 100 µM | TGI (UO-31 renal): > 100 µM | TGI (RPMI-8226 leukemia): > 100 µM | TGI (HOP-92 NSCLC): > 100 µM | TGI (T-47D breast): > 100 µM | TGI (IGROV1 ovarian): > 100 µM | TGI (SN12C renal): > 100 µM | TGI (NCI-H522 lung): > 100 µM | TGI (SF-539 CNS): > 100 µM | TGI (CAKI-1 renal): > 100 µM | TGI (HCT-116 colon): > 100 µM | TGI (SK-MEL-2 melanoma): > 100 µM

NC(=S)N1N=C2c3ccccc3CCC[C@H]2[C@@H]1c1ccccc1
TGI (NCI-H460 lung): 12.1 µM | TGI (A549 NSCLC): > 53.7 µM | TGI (SF-295 CNS): 10.6 µM | TGI (MCF7 breast): 25.3 µM | TGI (SNB-78 CNS): 61.9 µM | TGI (MOLT-4 leukemia): 18.9 µM | TGI (SNB-75 CNS): 0.9 µM | TGI (RXF 393 renal): 6.68 µM | TGI (COLO 205 colon): 6.32 µM | TGI (TK-10 renal): 52 µM | TGI (SR leukemia): > 32.9 µM | TGI (OVCAR-4 ovarian): 23.2 µM | TGI (OVCAR-8 ovarian): 17.4 µM | TGI (UACC-257 melanoma): 25.7 µM | TGI (786-0 renal): 21.8 µM | TGI (K-562 leukemia): > 37.9 µM | TGI (U251 CNS): 17.7 µM | TGI (DU-145 prostate): 9.27 µM | TGI (NCI-H23 lung): 27.8 µM | TGI (MALME-3M melanoma): 21.5 µM | TGI (BT-549 breast): 19.7 µM | TGI (A498 renal): 23.3 µM | TGI (XF 498 CNS): 16.5 µM | TGI (NCI-H226 lung): 11.1 µM | TGI (DMS 273 small cell lung): 11.3 µM | TGI (HOP-62 NSCLC): 19.2 µM | TGI (SNB-19 CNS): 25.2 µM | TGI (OVCAR-5 ovarian): 55.5 µM | TGI (HCT-15 colon): 26.2 µM | TGI (EKVX NSCLC): 70.2 µM | TGI (HCC-2998 colon): 14 µM | TGI (HT29 colon): 6.18 µM | TGI (MDA-N): 0.279 µM | TGI (OVCAR-3 ovarian): 1.94 µM | TGI (SK-OV-3 ovarian): 2.77 µM | TGI (SK-MEL-28 melanoma): 32.6 µM | TGI (MDA-MB-435): 0.326 µM | TGI (LXFL 529 NSCLC): 18.2 µM | TGI (M19-MEL melanoma): > 100 µM | TGI (SW-620 colon): 15.3 µM | TGI (PC-3 prostate): 18.3 µM | TGI (DLD-1 colon): 25.7 µM | TGI (KM20L2 colon): 5.22 µM | TGI (MDA-MB-231 breast): 17.1 µM | TGI (SK-MEL-5 melanoma): 8.93 µM | TGI (LOX IMVI melanoma): 16.4 µM | TGI (ACHN renal): 30.6 µM | TGI (KM12 colon): 18.3 µM | TGI (HS 578T breast): 17.4 µM | TGI (M14 melanoma): 10.1 µM | TGI (DMS 114 small cell lung): 50.8 µM | TGI (NCI/ADR-RES ovarian): 3 µM | TGI (SF-268 CNS): 39.4 µM | TGI (CCRF-CEM leukemia): 24.3 µM | TGI (UO-31 renal): 15.8 µM | TGI (RPMI-8226 leukemia): 17.2 µM | TGI (T-47D breast): 29.1 µM | TGI (IGROV1 ovarian): 25 µM | TGI (SN12C renal): 19.7 µM | TGI (NCI-H522 lung): 1.42 µM | TGI (SF-539 CNS): 2.61 µM | TGI (HCT-116 colon): 12.7 µM | TGI (SK-MEL-2 melanoma): 5.94 µM

O=C1Nc2ccc(Cl)c(I)c2C1=O
TGI (NCI-H460 lung): 39.7 µM | TGI (A549 NSCLC): > 100 µM | TGI (SF-295 CNS): 32.3 µM | TGI (MOLT-4 leukemia): 54.6 µM | TGI (SNB-75 CNS): 50.8 µM | TGI (RXF 393 renal): 29.8 µM | TGI (COLO 205 colon): 35.1 µM | TGI (TK-10 renal): > 100 µM | TGI (SR leukemia): 50.7 µM | TGI (OVCAR-4 ovarian): 32 µM | TGI (OVCAR-8 ovarian): 38.1 µM | TGI (UACC-257 melanoma): 33 µM | TGI (786-0 renal): 36.8 µM | TGI (K-562 leukemia): 65.5 µM | TGI (U251 CNS): 31.2 µM | TGI (NCI-H23 lung): 37.6 µM | TGI (MALME-3M melanoma): 34.8 µM | TGI (XF 498 CNS): 34.2 µM | TGI (NCI-H226 lung): 20 µM | TGI (DMS 273 small cell lung): 30.8 µM | TGI (HOP-62 NSCLC): 34.8 µM | TGI (SNB-19 CNS): 80.5 µM | TGI (OVCAR-5 ovarian): 34.1 µM | TGI (HCT-15 colon): 43.7 µM | TGI (EKVX NSCLC): 20.8 µM | TGI (HCC-2998 colon): 27.7 µM | TGI (HT29 colon): 75.9 µM | TGI (UACC-62 melanoma): 34.8 µM | TGI (OVCAR-3 ovarian): 52.3 µM | TGI (SK-OV-3 ovarian): 34.6 µM | TGI (HL-60(TB) leukemia): 41.3 µM | TGI (SK-MEL-28 melanoma): 31.7 µM | TGI (LXFL 529 NSCLC): 30.5 µM | TGI (M19-MEL melanoma): 24.9 µM | TGI (SW-620 colon): 36.9 µM | TGI (DLD-1 colon): 31.4 µM | TGI (KM20L2 colon): 34.9 µM | TGI (SK-MEL-5 melanoma): 34.9 µM | TGI (LOX IMVI melanoma): 35.1 µM | TGI (ACHN renal): 30.7 µM | TGI (KM12 colon): 76.3 µM | TGI (M14 melanoma): 31.1 µM | TGI (DMS 114 small cell lung): 34.2 µM | TGI (SF-268 CNS): 32.6 µM | TGI (CCRF-CEM leukemia): 57.4 µM | TGI (UO-31 renal): 38.8 µM | TGI (IGROV1 ovarian): 30.9 µM | TGI (SN12C renal): 30.9 µM | TGI (NCI-H522 lung): 32 µM | TGI (CAKI-1 renal): 37.9 µM | TGI (HCT-116 colon): 28.8 µM | TGI (SK-MEL-2 melanoma): 34.2 µM
